Earlier results on five compounds are cited in patent publication US12357549B2, “Method for dyeing keratinous material, comprising the use of an organosilicon compound, a dyeing compound, a sealing reagent, and a pre-treatment agent” (Henkel AG & Co. KGaA, priority 2021, dated 2025).

The conditions of this data set: 25° C.

Regarding `CCN(Cc1cccc(S(=O)(=O)[O-])c1)c1ccc(C(=C2C=CC(=[N+](CC)Cc3cccc(S(=O)(=O)[O-])c3)C=C2)c2ccccc2S(=O)(=O)[O-])cc1.[Na+].[Na+]` [Acid Blue 9], the water solubility entry is “more than 20 wt %”.

Take `O=S(=O)([O-])c1ccc(N=Nc2c(O)ccc3ccccc23)cc1.[Na+]` [Acid Orange 7, sodium salt of 4-[(2-hydroxy-1-naphthyl)azo]benzenesulfonate]: the solubility in water entry is “more than 7 g/L”.

For the compound `Nc1cc(S(=O)(=O)[O-])cc2cc(S(=O)(=O)[O-])c(N=Nc3ccccc3)c(O)c12.[Na+].[Na+]` [Acid Red 33, disodium salt of 5-amino-4-hydroxy-3-(phenylazo)-naphthalene-2,7-disulfonate], the solubility in water is 2500 µg/mL.

In the case of `O=C([O-])c1c(Cl)c(Cl)c(Cl)c(Cl)c1-c1c2c(Br)cc(=O)c(Br)c-2oc2c(Br)c(O)cc(Br)c12.O=C([O-])c1c(Cl)c(Cl)c(Cl)c(Cl)c1-c1c2c(Br)cc(=O)c(Br)c-2oc2c(Br)c(O)cc(Br)c12.[Na+].[Na+]` [Acid Red 92, disodium salt of 3,4,5,6-tetrachloro-2-(1,4,5,8-tetrabromo-6-hydroxy-3-oxoxanthen-9-yl)benzoic acid], the solubility in water entry is given as “greater than 10 g/L”.

As for `O=C([O-])C1=NN(c2ccc(S(=O)(=O)[O-])cc2)C(=O)C1N=Nc1ccc(S(=O)(=O)[O-])cc1.[Na+].[Na+].[Na+]` (centres unmarked) [Acid Yellow 23, trisodium salt of 4,5-dihydro-5-oxo-1-(4-sulfophenyl)-4-((4-sulfophenyl)azo)-1H-pyrazole-3-carboxylic acid], the “solubility in water (in words)” value is “readily soluble in water”.
